US20230017045A1, “PYRIDINE AND PYRIMIDINE CARBOXYLATE HERBICIDES AND METHODS OF USE THEREOF” (Dow AgroSciences LLC, priority 2017, published 2023)

Each compound was assayed on test plant species (assay: Post-emergent herbicidal activity test (greenhouse, foliar spray, visual growth reduction)). Details: post-emergence, 336 h, ALOMY: blackgrass (Alopecurus myosuroides), 140 g ai/ha, 14 days after application, read-out: Visual Growth Reduction (%) 14 Days After Application, ALOMY.
Format: in vivo
Method: Post-emergent Test: Seeds or nutlets of the desired test plant species were planted in Sun Gro Metro-Mix® 360 planting mixture, which typically has a pH of 6.0 to 6.8 and an organic matter content of about 30 percent, in plastic pots with a surface area of 64 square centimeters. In some aspects, to ensure good germination and healthy plants, a fungicide treatment and/or other chemical or physical treatment was applied. The plants were grown for 7-21 d in a greenhouse with an approximate 15 h photoperiod which was maintained at 23-29° C. during the day and 22-28° C. during the night. Nutrients and water were added on a regular basis and supplemental lighting was provided with overhead metal halide 1000-Watt lamps as necessary. Plants were used for testing when they reached the first or second true leaf stage. A weighed amount, determined by the highest rate to be tested, of each test compound was placed in a 25 mL glass vial and was dissolved in 4 mL of a 97:3 v/v mixture of acetone and DMSO to obtain concentrated stock solutions. […] The concentrated stock solutions obtained were diluted with 20 mL of an aqueous mixture containing acetone, water, isopropyl alcohol, DMSO, […] crop oil concentrate, and X-77 surfactant in a 48.5:39:10:1.5:1.0:0.02 v/v ratio to obtain spray solutions containing the application rate. Compound requirements are based upon a 12 mL application volume at a rate of 187 liters per hectare (L/ha). Formulated compounds were applied to the plant material with an overhead Mandel track sprayer equipped with […] nozzles calibrated to deliver 187 L/ha over an application area of 0.64 square meters at a spray height of 18 inches (43 cm) above the average plant canopy height. Control plants were sprayed in the same manner with the solvent blank. The treated plants and control plants were placed in a greenhouse as described above and watered by subirrigation to prevent wash-off of the test compounds. After 14 d, the condition of the test plants as compared with that of the nontreated and control plants was determined visually and scored on a scale of 0 to 100 percent where 0 corresponds to no injury and 100 corresponds to complete control. In the reporting of the results, Table A: Percent Growth Reduction Conversion Table was used.

Compound | pest or weed control at 140 g/ha [%]
COC(=O)c1nc(-c2ccc3[nH]ccc3c2)c(F)cc1Cl [F189, Methyl 3-chloro-5-fluoro-6-(1H-indol-5-yl)picolinate] | 0 to 29
COC(=O)c1nc(-c2ccc(C(F)(F)F)cc2Cl)ncc1Cl [F105, Methyl 5-chloro-2-(2-chloro-4-(trifluoromethyl)phenyl)pyrimidine-4-carboxylate] | 0 to 29

Same assay, conditions: post-emergence, 336 h, AMARE: redroot pigweed (Amaranthus retroflexus), 140 g ai/ha, 14 days after application, read-out: Visual Growth Reduction (%) 14 Days After Application, AMARE

Compound | pest or weed control at 140 g/ha [%]
COC(=O)c1nc(-c2ccc3[nH]ccc3c2)c(F)cc1Cl [F189, Methyl 3-chloro-5-fluoro-6-(1H-indol-5-yl)picolinate] | 0 to 29
COC(=O)c1nc(-c2ccc(C(F)(F)F)cc2Cl)ncc1Cl [F105, Methyl 5-chloro-2-(2-chloro-4-(trifluoromethyl)phenyl)pyrimidine-4-carboxylate] | 95 to 100

Same assay, conditions: post-emergence, 336 h, AVEFA: wild oat (Avena fatua), 140 g ai/ha, 14 days after application, read-out: Visual Growth Reduction (%) 14 Days After Application, AVEFA

Compound | pest or weed control at 140 g/ha [%]
COC(=O)c1nc(-c2ccc3[nH]ccc3c2)c(F)cc1Cl [F189, Methyl 3-chloro-5-fluoro-6-(1H-indol-5-yl)picolinate] | 0 to 29
COC(=O)c1nc(-c2ccc(C(F)(F)F)cc2Cl)ncc1Cl [F105, Methyl 5-chloro-2-(2-chloro-4-(trifluoromethyl)phenyl)pyrimidine-4-carboxylate] | 0 to 29

Same assay, conditions: post-emergence, 336 h, CHEAL: lambsquarters (Chenopodium album), 140 g ai/ha, 14 days after application, read-out: Visual Growth Reduction (%) 14 Days After Application, CHEAL

Compound | pest or weed control at 140 g/ha [%]
COC(=O)c1nc(-c2ccc3[nH]ccc3c2)c(F)cc1Cl [F189, Methyl 3-chloro-5-fluoro-6-(1H-indol-5-yl)picolinate] | 30 to 44
COC(=O)c1nc(-c2ccc(C(F)(F)F)cc2Cl)ncc1Cl [F105, Methyl 5-chloro-2-(2-chloro-4-(trifluoromethyl)phenyl)pyrimidine-4-carboxylate] | 85 to 94

Same assay, conditions: post-emergence, 336 h, CIRAR: canada thistle (Cirsium arvense), 140 g ai/ha, 14 days after application, read-out: Visual Growth Reduction (%) 14 Days After Application, CIRAR

Compound | pest or weed control at 140 g/ha [%]
COC(=O)c1nc(-c2ccc3[nH]ccc3c2)c(F)cc1Cl [F189, Methyl 3-chloro-5-fluoro-6-(1H-indol-5-yl)picolinate] | 30 to 44
COC(=O)c1nc(-c2ccc(C(F)(F)F)cc2Cl)ncc1Cl [F105, Methyl 5-chloro-2-(2-chloro-4-(trifluoromethyl)phenyl)pyrimidine-4-carboxylate] | 85 to 94

Same assay, conditions: post-emergence, 336 h, CYPES: yellow nutsedge (Cyperus esculentus), 140 g ai/ha, 14 days after application, read-out: Visual Growth Reduction (%) 14 Days After Application, CYPES

Compound | pest or weed control at 140 g/ha [%]
COC(=O)c1nc(-c2ccc3[nH]ccc3c2)c(F)cc1Cl [F189, Methyl 3-chloro-5-fluoro-6-(1H-indol-5-yl)picolinate] | 0 to 29
COC(=O)c1nc(-c2ccc(C(F)(F)F)cc2Cl)ncc1Cl [F105, Methyl 5-chloro-2-(2-chloro-4-(trifluoromethyl)phenyl)pyrimidine-4-carboxylate] | 0 to 29

Same assay, conditions: post-emergence, 336 h, DIGSA: crabgrass (Digitaria sanguinalis), 140 g ai/ha, 14 days after application, read-out: Visual Growth Reduction (%) 14 Days After Application, DIGSA

Compound | pest or weed control at 140 g/ha [%]
COC(=O)c1nc(-c2ccc3[nH]ccc3c2)c(F)cc1Cl [F189, Methyl 3-chloro-5-fluoro-6-(1H-indol-5-yl)picolinate] | 0 to 29
COC(=O)c1nc(-c2ccc(C(F)(F)F)cc2Cl)ncc1Cl [F105, Methyl 5-chloro-2-(2-chloro-4-(trifluoromethyl)phenyl)pyrimidine-4-carboxylate] | 85 to 94

Same assay, conditions: post-emergence, 336 h, ECHCG: barnyardgrass (Echinochloa crus-galli), 140 g ai/ha, 14 days after application, read-out: Visual Growth Reduction (%) 14 Days After Application, ECHCG

Compound | pest or weed control at 140 g/ha [%]
COC(=O)c1nc(-c2ccc3[nH]ccc3c2)c(F)cc1Cl [F189, Methyl 3-chloro-5-fluoro-6-(1H-indol-5-yl)picolinate] | 0 to 29
COC(=O)c1nc(-c2ccc(C(F)(F)F)cc2Cl)ncc1Cl [F105, Methyl 5-chloro-2-(2-chloro-4-(trifluoromethyl)phenyl)pyrimidine-4-carboxylate] | 60 to 74

Same assay, conditions: post-emergence, 336 h, IPOHE: ivy-leaf morning glory (Ipomoea hederacea), 140 g ai/ha, 14 days after application, read-out: Visual Growth Reduction (%) 14 Days After Application, IPOHE

Compound | pest or weed control at 140 g/ha [%]
COC(=O)c1nc(-c2ccc3[nH]ccc3c2)c(F)cc1Cl [F189, Methyl 3-chloro-5-fluoro-6-(1H-indol-5-yl)picolinate] | 60 to 74
COC(=O)c1nc(-c2ccc(C(F)(F)F)cc2Cl)ncc1Cl [F105, Methyl 5-chloro-2-(2-chloro-4-(trifluoromethyl)phenyl)pyrimidine-4-carboxylate] | 95 to 100

Same assay, conditions: post-emergence, 336 h, KCHSC: kochia (Bassia scoparia), 140 g ai/ha, 14 days after application, read-out: Visual Growth Reduction (%) 14 Days After Application, KCHSC

Compound | pest or weed control at 140 g/ha [%]
COC(=O)c1nc(-c2ccc3[nH]ccc3c2)c(F)cc1Cl [F189, Methyl 3-chloro-5-fluoro-6-(1H-indol-5-yl)picolinate] | 0 to 29
COC(=O)c1nc(-c2ccc(C(F)(F)F)cc2Cl)ncc1Cl [F105, Methyl 5-chloro-2-(2-chloro-4-(trifluoromethyl)phenyl)pyrimidine-4-carboxylate] | 60 to 74

Same assay, conditions: post-emergence, 336 h, ORYSA: rice (Oryza sativa), 140 g ai/ha, 14 days after application, read-out: Visual Growth Reduction (%) 14 Days After Application, ORYSA

Compound | pest or weed control at 140 g/ha [%]
COC(=O)c1nc(-c2ccc3[nH]ccc3c2)c(F)cc1Cl [F189, Methyl 3-chloro-5-fluoro-6-(1H-indol-5-yl)picolinate] | 0 to 29
COC(=O)c1nc(-c2ccc(C(F)(F)F)cc2Cl)ncc1Cl [F105, Methyl 5-chloro-2-(2-chloro-4-(trifluoromethyl)phenyl)pyrimidine-4-carboxylate] | 0 to 29

Same assay, conditions: post-emergence, 336 h, SETFA: giant foxtail (Setaria faberi), 140 g ai/ha, 14 days after application, read-out: Visual Growth Reduction (%) 14 Days After Application, SETFA

Compound | pest or weed control at 140 g/ha [%]
COC(=O)c1nc(-c2ccc3[nH]ccc3c2)c(F)cc1Cl [F189, Methyl 3-chloro-5-fluoro-6-(1H-indol-5-yl)picolinate] | 0 to 29
COC(=O)c1nc(-c2ccc(C(F)(F)F)cc2Cl)ncc1Cl [F105, Methyl 5-chloro-2-(2-chloro-4-(trifluoromethyl)phenyl)pyrimidine-4-carboxylate] | 60 to 74

Same assay, conditions: post-emergence, 336 h, SORVU: grain sorghum (Sorghum vulgare), 140 g ai/ha, 14 days after application, read-out: Visual Growth Reduction (%) 14 Days After Application, SORVU

Compound | pest or weed control at 140 g/ha [%]
COC(=O)c1nc(-c2ccc3[nH]ccc3c2)c(F)cc1Cl [F189, Methyl 3-chloro-5-fluoro-6-(1H-indol-5-yl)picolinate] | 0 to 29
COC(=O)c1nc(-c2ccc(C(F)(F)F)cc2Cl)ncc1Cl [F105, Methyl 5-chloro-2-(2-chloro-4-(trifluoromethyl)phenyl)pyrimidine-4-carboxylate] | 75 to 84

Same assay, conditions: post-emergence, 336 h, STEME: common chickweed (Stellaria media), 140 g ai/ha, 14 days after application, read-out: Visual Growth Reduction (%) 14 Days After Application, STEME

Compound | pest or weed control at 140 g/ha [%]
COC(=O)c1nc(-c2ccc3[nH]ccc3c2)c(F)cc1Cl [F189, Methyl 3-chloro-5-fluoro-6-(1H-indol-5-yl)picolinate] | 0 to 29
COC(=O)c1nc(-c2ccc(C(F)(F)F)cc2Cl)ncc1Cl [F105, Methyl 5-chloro-2-(2-chloro-4-(trifluoromethyl)phenyl)pyrimidine-4-carboxylate] | 0 to 29

Same assay, conditions: post-emergence, 336 h, TRZAS: wheat, spring (Triticum aestivum), 140 g ai/ha, 14 days after application, read-out: Visual Growth Reduction (%) 14 Days After Application, TRZAS

Compound | pest or weed control at 140 g/ha [%]
COC(=O)c1nc(-c2ccc3[nH]ccc3c2)c(F)cc1Cl [F189, Methyl 3-chloro-5-fluoro-6-(1H-indol-5-yl)picolinate] | 0 to 29
COC(=O)c1nc(-c2ccc(C(F)(F)F)cc2Cl)ncc1Cl [F105, Methyl 5-chloro-2-(2-chloro-4-(trifluoromethyl)phenyl)pyrimidine-4-carboxylate] | 0 to 29
